Entries after “also recorded” stand apart in the source; their conditions may differ.

For data set [1], the system named is human (MiaPaCa2, PANC-1, AsPC1, BxPC3) and murine (KP02, PANC02) pancreatic cancer cells. Description: Cell viability MTT assay 48 h, panel of pancreatic cancer cell lines. It counts as cell-based. Particulars: range over six pancreatic cancer cell lines; read-out: EC50 cytotoxic activity in all the cell lines studied. How it is done:
(§1) Cell viability was assessed using a MTT assay at 48 h. On day 1, 25,000 cells/well were seeded into 96-well plates in 100 µl culture medium. On day 2, drugs at concentrations ranging from 1 µM to 100 µM were added. In all experiments the drug-solvents (EtOH, DMSO) were added as controls to evaluate possible solvent cyto-toxicities. After the established incubation time with drugs (48 h), MTT (0.5 mg/ml) was added to each well, and after 3–4 h incubation at 37 °C, the supernatants were removed. The formazan crystals formed were solubilized using 100 µl DMSO/EtOH (1:1) after which the absorbance values at 570 and 630 nm were determined using a microplate reader Victor 3 from PerkinElmer Life Sciences.

The test system of the next data set is caspase 3. Description: Caspase 3 activity assay in pancreatic cancer cells. It counts as cell-based, human and murine. Particulars: 2 h. The method, then:
Caspase 3, caspase 7 and caspase 9 activation was measured using a Caspase 3/7 Fluorescence Assay kit (Cayman Chemical, Ann Arbor, MI, USA) and a Caspase 9 fluorometric assay kit (Enzo Life Science, Roma, Italy). The results are expressed as nmol of the hydrolyzed substrate of each caspase/mg cellular proteins, according to a previously set titration curve.

Data set [2] deals with GRP78, ATF6, IRE1 and PERK. The experiment in a line: Western blotting of ER stress markers in pancreatic cancer cells. It counts as cell-based, human and murine. Particulars: 50 µM, 2 h. The method, then:
(§2) Cells were rinsed with ice-cold lysis buffer (50 mM, Tris, 10 mM EDTA, 1 % v/v Triton-X100), supplemented with protease inhibitor cocktail set III (80 µM aprotinin, 5 mM bestatin, 1.5 mM leupeptin, 1 mM pepstatin; Calbiochem, San Diego, CA, USA), 2 mM phenylmethylsulfonyl fluoride and 1 mM Na3VO4, then sonicated and centrifuged at 13,000 g for 10 min at 4 °C. 20 µg protein extracts were subjected to SDS-PAGE and probed with antibodies directed against ATG5, ATG7, ATG12, beclin, p62, LC3, GRP78, ATF6, IRE-1α and PERK (all from Abcam, Cambridge, UK), followed by incubation with a peroxidase-conjugated secondary antibody (Bio-Rad Laboratories). Next, the membranes were washed with Tris-buffered saline-Tween 0.1 % v/v solution, and proteins were detected by enhanced chemiluminescence (Bio-Rad Laboratories). To check for equal loading, the samples were probed with an anti-β-tubulin antibody (Santa Cruz Biotechnology Inc., Santa Cruz, CA, USA).
On the technique in general: A western blot detects proteins with antibodies after separation by electrophoresis.

Data set [3] relates to mitochondrial depolarization. Description: Mitochondrial depolarization assay (JC-1). The class given is cell-based, human and murine. Particulars: 50 µM, 2 h, JC1 staining. How it is done:
Staining with JC-1 fluorescent probe (Biotium Inc., Freemont, CA, USA) was performed as detailed in Riganti et al.. The resulting fluorescence units were used to calculate the percentage of green-fluorescent (i.e., depolarized) mitochondria versus red-fluorescent (i.e., polarized) mitochondria.

In the next data set the test system is mitochondrial ROS. The experiment in a line: Mitochondrial ROS measurement (MitoSOX). It counts as cell-based, human and murine. Particulars: 50 µM, 2 h. How it is done:
Intra-mitochondrial ROS was measured using fluorescent probe MitoSOX as per manufacturer’s instructions (Invitrogen). To measure total ROS, cells were incubated with the ROS-sensitive probe 5-(and-6)-chlorometyl-20,70-dichlorodihydro-fluorescein diacetate-acetoxymethyl ester ([…]; DCFDA-AM) as described by Riganti et al.. The results are expressed as nmol/mg mitochondrial or cellular protein, respectively.

For data set [4], the system named is GRP78, ATF6, IRE1 and PERK. The experiment in a line: qRT-PCR of ER stress markers in pancreatic cancer cells. It counts as cell-based, human and murine. Particulars: 50 µM, 2 h. How it is done:
Total RNA was extracted using a phenol/chloroform method, after which 1 µg RNA was reverse-transcribed using an iScript Reverse Transcription Supermix kit according to the manufacturer’s instructions (Bio-Rad Laboratories). 25 ng cDNA was amplified using 10 µl of an IQ™ SYBR Green Supermix (Bio-Rad Laboratories). Primers were designed using qPrimer Depot software (http://primerdepot.nci.nih.gov/). qRT-PCR was carried out using an iQ^TM5 cycler (Bio-Rad Laboratories). The cycling conditions used were: 30 s at 95 °C, followed by 40 cycles of denaturation (15 s at 95 °C) and annealing/extension (30 s at 60 °C). The same cDNA preparations were used to quantify the expression of genes of interest and that of the housekeeping gene S14, which was used to normalize the gene expression levels. Relative quantitation of each sample was performed using Gene Expression Quantitation software (Bio-Rad Laboratories). The results were expressed in arbitrary units. For each gene, the expression level in untreated cells was arbitrarily set at “1”.

The test system of another data set is PANC02 cells. The experiment in a line: Cell viability MTT assay 48 h. The class given is cell-based, murine. Particulars: Mus musculus, MTT 48 h, read-out: Activity EC50 ± SEM, PANC02. How it is done:
as §1
(Formazan colour is commonly taken as a measure of viable cells.)

The next data set relates to MiaPaCa2 xenografts. The experiment in a line: In vivo xenograft assay, MiaPaCa2. Further details: species or system mice. Particulars: FA4 750 and 1500 nmol i.p. daily, 15 days.
In data set [5] the target is T1, sigma-2 receptors (Mus musculus, UniProt Q8VD00).
T1 construct: endogenous in cells; host or cells: KP02 (murine pancreatic cancer cells)
T1 sequence (Q8VD00 whole entry): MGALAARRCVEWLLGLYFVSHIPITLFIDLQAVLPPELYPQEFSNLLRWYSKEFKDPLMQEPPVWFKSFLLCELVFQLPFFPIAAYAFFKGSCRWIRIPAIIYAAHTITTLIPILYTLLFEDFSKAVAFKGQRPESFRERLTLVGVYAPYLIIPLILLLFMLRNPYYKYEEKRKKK
The experiment in a line: Flow cytometry displacement of sigma-2 fluorescent ligand NO1 in murine KP02 cells. It counts as binding. How it is done:
Flow cytometry studies to detect receptor densities and ligand binding affinities were carried out according to Abate et al. and Niso et al., for the sigma-1 and sigma-2 receptors, respectively. […] At the end of the incubation periods, the cells were washed twice with PBS, detached with […] Cell Dissociation Solution (Sigma Chemical Co.) for 10 min at 37 °C, centrifuged at 13,000 g for 5 min and resuspended in 500 µl PBS. Fluorescence was recorded using a Bio-Guava® easyCyte™ 5 Flow Cytometry System (Millipore, Billerica, MA, USA) equipped with a 530 nm band pass filter. For each analysis, 50,000 events were collected and analyzed using InCyte software (Millipore).
For orientation: A flow cytometer gives signals particle by particle.

Data set [6] is described as follows: Systemic toxicity and hematochemical parameters of treated PANC-1 tumor-bearing mice. Particulars: PANC-1 tumor-bearing mice, 30 days treatment.
Protocol: 2 × 10^5 PANC-1 or Mia-PaCa2 cells were inoculated subcutaneously in the right flank of 6-week old C57BL/6 female nude mice (Charles River Laboratories Italia, Calco), housed (5 per cage) under a 12 h light/dark cycle, with food and drinking water provided ad libitum. Tumor growth was measured daily by caliper, according to the equation (LxW^2)/2, where L = tumor length and W = tumor width. […] Tumor volumes and animal weights were monitored daily. Animals were euthanized at day 18 or 36 after randomization with zolazepam (0.2 ml/kg) and xylazine (16 mg/kg). […] Red blood cell (RBC) count, hemoglobin (Hb), white blood cell (WBC) count, platelet (PLT) count, lactate dehydrogenase (LDH), aspartate aminotransferase (AST), alanine aminotransferase (ALT), alkaline phosphatase (AP), creatinine and creatine phosphokinase (CPK) were measured in blood samples collected immediately after euthanasia, using commercially available kits from Beckman Coulter Inc (Beckman Coulter, Miami, FL, USA).
Blood was collected immediately after euthanasia and analyzed for red blood cells (RBC) count, hemoglobin (Hb), white blood cells (WBC) count, platelets (PLT) count, lactate dehydrogenase (LDH), aspartate aminotransferase (AST), alanine aminotransferase (ALT), alkaline phosphatase (AP), creatinine, creatine phosphokinase (CPK). Data are presented as means ± SD.
Data set [7] has as its system ATG5, ATG7, ATG12, beclin 1, p62, LC3. Description: Western blotting of autophagy and sequestration markers. It counts as cell-based, human and murine. Particulars: 50 µM, 2 h. The method, then:
as §2

Data set [8] has as its target T2, sigma-2 receptors (Rattus norvegicus, UniProt Q5U3Y7).
T2 construct: in rat liver membranes; from tissue; host or cells: rat liver membranes
The experiment in a line: Sigma-2 radioligand binding assay ([3H]-DTG, rat liver membranes). The method, then: Sigma-2 receptor binding was carried out according to Berardi et al.. […] Concentrations required to inhibit 50 % of radioligand-specific binding (IC50) were determined using six to nine different concentrations of the drug in two or three experiments with samples in duplicate. Scatchard parameters (Kd and Bmax) and apparent inhibition constant (Ki) values were determined by nonlinear curve fitting, using Prism version 5.0, GraphPad software.

T2 sequence (Q5U3Y7 whole entry): as the sequence (Q8VD00 whole entry) above, with L4V, A5T, L26M, V33L, L71F, A105V, L118I, V127I, S136N, Y169F counted along it
Protocol for MiaPaCa2 xenografts: 2 × 10^5 PANC-1 or Mia-PaCa2 cells were inoculated subcutaneously in the right flank of 6-week old C57BL/6 female nude mice (Charles River Laboratories Italia, Calco), housed (5 per cage) under a 12 h light/dark cycle, with food and drinking water provided ad libitum. Tumor growth was measured daily by caliper, according to the equation (LxW^2)/2, where L = tumor length and W = tumor width. When tumors reached a volume of 100 mm^3, the mice (n = 8/group) were randomized in the following groups and treated daily for 15 days or 30 days intraperitoneally as reported: (1) Vehicle group (100 µl saline solution), (2) FA4^low group (750 nmol FA4 in 100 µl saline solution), (3) FA4^high group (1500 nmol FA4 in 100 µl saline solution) and (4) Gemcitabine group (20 mg/kg gemcitabine, twice a week). Tumor volumes and animal weights were monitored daily. Animals were euthanized at day 18 or 36 after randomization with zolazepam (0.2 ml/kg) and xylazine (16 mg/kg). Next, tumors were excised and paraffin-embedded. […] Quantification of the immunohistochemical analyses was performed using ImageJ software (https://imagej.nih.gov/). The staining intensities were expressed as arbitrary units and considered 1 in the vehicle group.

By EC50 is commonly meant the concentration that produces a half-maximal response. The term IC50 denotes the concentration that inhibits the measured activity by half. For orientation: Ki means the dissociation constant of the complex between target and ligand, obtained from inhibition or displacement. In the case of `CN(C)C(=S)N/N=C1\C(=O)N(CCCCN2CCC3(CC2)OCc2ccccc23)c2ccccc21` [FA4, (Z)-2-(1-(4-(3 H-spiro[isobenzofuran-1,4’-piperidine]-1’-yl)butyl)-2-oxoindolin-3-ylidene)-N,N-dimethylhydrazinecarbothioamide], the EC50 in data set [1] is 880 to 3010 nM; with PANC02 cells, 1940 ± 500 nM. Besides, in the data set on caspase 3 (50 µM, MiaPaCa2, PANC-1, AspC1, KP02, PANC02 cells), the “caspase 3 activation” value is “activated caspase 3 in all the cell lines investigated; also recorded: most potent inducer of caspase 3 in all cell lines tested”. Besides, the “induction of caspases 3, 7, 9 at IC50 concentration” value in the data set with caspase 3 (concentration corresponding to IC50 in each cell line) is given as “significant inducer of caspases in all the cell lines analyzed, except for MiaPaCa2”. Besides, the “protein expression of ER stress sensors and executers (Western blot)” value in data set [2] was “in all cell lines except MiaPaCa2, this thiosemicarbazone was able to increase the expression of ER stress sensors and executers”. For the same compound, the mitochondrial depolarization result in data set [3] is “all FA4-treated cells had depolarized (i.e., damaged) mitochondria, except MiaPaCa2”. Further, in the data set with mitochondrial ROS, the “mitochondrial ROS” value is “increased mitochondrial ROS in all the cell lines tested, except MiaPaCa2”. The “mRNA expression of ER stress markers GRP78, ATF6, IRE1, PERK” value in data set [4] was “increased upon treatment with FA4 in all the cells tested, except in MiaPaCa2 cells”. In addition, in the data set with MiaPaCa2 xenografts, the tumor growth result is on record as “ineffective at both dosages”. Also, the IC50 at sigma-2 receptors [5] worked out at 11.6 ± 1.5 nM. For the same compound, in data set [6], the “treatment-related deaths, weight loss, abnormalities in behavior” value is given as “No treatment-related deaths, weight loss or abnormalities in mouse behavior were observed”. Further, the “levels of autophagosome proteins, p62 and LC3 conversion” value in [7] is listed as “reduced the levels of all the above-mentioned proteins as well as the LC-I/LC-II conversion in responsive cells, but not in MiaPaCa2 cells”. Moreover, the inhibitory constant (Ki) at sigma-2 receptors [8] amounted to 15.8 ± 3.6 nM.

Source of the values: article PMC8648660, “Multifunctional thiosemicarbazones targeting sigma receptors: in vitro and in vivo antitumor activities in pancreatic cancer models” (Cellular Oncology, 2021).
